Data: PubChem BioAssay AID2305 (GlaxoSmithKline (GSK), 2010)

Test system: P. falciparum 3D7 growth, pLDH absorbance
Experiment: blood-stage malaria parasite growth potency – strain 3D7, dose response (AID 2305)

SMILES | IC50
COc1ccc2nc(-c3cccc(C)n3)nc(Nc3ccncc3)c2c1 | 0.67 µM
COc1ccc(N2CCN(c3nc(N)c4cc(OC)c(OC)cc4n3)CC2C)cc1 (configuration not stated) | 1.42 µM
NC1=NC2(CCCCC2)N(OCCCCCCc2ccccc2)C(N)=N1 | 0.35 µM
COc1ccc(CCN(C)CCCCNC(=O)c2ccc(NC(=O)c3ccc(Cl)cc3)cc2)c(OC)c1 | 0.92 µM
Fc1ccc(Nc2ccnc3cc(-c4cccc(CNCCN5CCOCC5)c4)ccc23)c(Cl)c1 | 0.14 µM
FC(F)(F)c1ccc2nc(-c3ccc(-c4cccc(CNCC5CCCO5)c4)cc3)[nH]c2c1 (configuration not stated) | 0.25 µM
C/C=C/COc1ccc2ccccc2c1CNCCCCCCCCNCc1c(OC/C=C/C)ccc2ccccc12 | 0.91 µM
Cc1c(Cn2nc(Cl)c(N3CCNCC3)cc2=O)cccc1NC(=O)Nc1ccc(-c2ccccc2)cc1 | 1.38 µM
COc1cc2c(cc1S(=O)(=O)c1ccc(NC(=O)c3cc4ccccc4s3)cc1)CCN(C)CC2 | 0.84 µM
CCOc1cc(Cc2cnc(N)nc2N)cc(OCC)c1OCCCCC(=O)OC | 0.04 µM
CCCC(=O)c1cnc2c(Oc3cc(Cl)ncn3)cccc2c1Nc1ccccc1C | 0.34 µM
N#Cc1ccc2c(c1)CCN(CCC1CCC(NC(=O)c3ccc(-c4ccccn4)s3)CC1)CC2 (configuration not stated) | 1.01 µM
COc1cccc(-c2ccc(NC(=O)C3CCCN(Cc4cccc(OC)c4O)C3)cc2)c1 (configuration not stated) | 0.85 µM
CC(C)NCc1ccc(-c2cccc(NC(=O)c3cccc(C#N)c3)c2)cc1 | 0.41 µM
NC(=O)c1cccc(C(=O)Nc2ccc(-c3cccc(-c4nc5ccc(F)cc5[nH]4)c3)cc2)c1 | 0.87 µM
O=C(/C=C/c1ccc(Cl)c(Cl)c1)NCCCCCN1CCC(NC(=O)Nc2ccc(Cl)c(C(F)(F)F)c2)CC1 | 0.65 µM
NC(N)=NN=Cc1cc([N+](=O)[O-])ccc1Sc1ccccc1CO | 1.46 µM
CCCC1N=C(N)N=C(N)N1c1ccc(OC)cc1 (configuration not stated) | 0.23 µM
Cc1cc(C)c(-c2n[nH]c3c2C(c2cccc(Cl)c2)N(Cc2ccco2)C3=O)c(O)c1 (configuration not stated) | 1.01 µM
CN(C)CCCNc1c2ccccc2nc2ccccc12 | 1.04 µM
CN1CCN(c2cccc(-c3nnc(-c4cccc(OCC(=O)NCc5ccc(C(F)(F)F)cc5)c4)o3)c2)CC1 | 0.76 µM
O=C(Nc1cc(=O)[nH]c2nc(-c3ccccc3)nn12)C1CCCCC1 | 0.42 µM
Cc1cccc2[nH]c(-c3ccc(-c4ccc(CN5CCN(CC6CCCN(C)C6)CC5)cc4)cc3)nc12 (configuration not stated) | 0.14 µM
FC(F)(F)c1cccc(CCNc2nccc(NCc3ccc(Cl)cc3Cl)n2)c1 | 0.86 µM
O=C(N[C@H]1CCN(CCc2ccc(O[C@H]3CCNC3)c(Br)c2)C1)c1ccc(Cl)c(Cl)c1 | 0.66 µM

SMILES | IC50
CS(=O)(=O)Cc1ccc(Nc2nccc(-c3c(-c4cccc(NC(=O)C5CCCCC5)c4)nn4ncccc34)n2)cc1 | 0.2 µM
Cc1cccc2[nH]c(-c3cccc(-c4ccc(NC(=O)C(C)CN5CCN(C)CC5)cc4)c3)nc12 (configuration not stated) | 0.18 µM
c1cc(CN2CCC(CCN3CCCCC3)CC2)cc(-c2cccc(-c3nc4ccccc4[nH]3)c2)c1 | 0.14 µM
CN(C)CCC=C1c2ccccc2Sc2c(O)cc(Cl)cc21 | 0.28 µM
Cc1c2ccc(N(C)c3ccnc(Nc4ccc5c(c4)nc(NC(C)C)n5C)n3)cc2nn1C | 0.16 µM
CCSc1ccccc1COc1c(C)nc(N)nc1N | 0.07 µM
COc1ccc(-c2nc3cccnc3n2CC(=O)Nc2c(C)cc(C)cc2C)c(OC)c1 | 0.93 µM
O=C(Nc1ccc(-c2csc(-c3nc4ccccc4[nH]3)c2)cc1)Nc1ccsc1 | 0.55 µM
N#Cc1ccc2c(c1)CN(CCC1CCC(NC(=O)c3cc4cnccc4[nH]3)CC1)CC2 (configuration not stated) | 0.8 µM
NC(=O)c1cccc(C(=O)Nc2cccc(-c3ccc(-c4nc5ccccc5[nH]4)s3)c2)c1 | 0.35 µM
CCCCCCc1cc(OC)c(OC)cc1C(C)Nc1ccnc2cc(Cl)ccc12 (configuration not stated) | 0.49 µM
C=CCOC(=O)N1CCC(CNCc2cccc(-c3ccc(-c4nc5ccc(C(F)(F)F)cc5[nH]4)cc3)c2)C1 (configuration not stated) | 0.15 µM
CCn1c(-c2nonc2N)nc2c(-c3cc4ccccc4s3)ncc(C(=O)N3CCC(N)C3)c21 (configuration not stated) | 0.87 µM
Cc1[nH]cnc1CSCCNC(N)=NCCCCCCCCN=C(N)NCCSCc1nc[nH]c1C | 0.27 µM
CC(=O)Nc1ccc(C(=O)Nc2cccc(-c3ccc(-c4nc5ccc(F)cc5[nH]4)s3)c2)cn1 | 0.23 µM
CNCc1cccc2[nH]c(-c3csc(Cc4cc(Cl)ccc4OCC(C)C)n3)nc12 | 0.72 µM
CC(C)N1CCC(N(Cc2ccc(-c3ccc(Cl)cc3)cc2)C(=O)Cn2c(CCc3cccc(F)c3F)nc(=O)c3ccccc32)CC1 | 0.94 µM
CCN(CC)CCCC(C)Nc1ccnc2cc(C#N)ccc12 (configuration not stated) | 0.14 µM
CCCCc1ccc2[nH]cc(C3=CCN(C)CC3)c2c1Br | 0.63 µM
COC(=O)COc1cc(C(=O)NCCCCN2CCC(c3ccc4c(c3OC)CCCC4)CC2)ccc1-c1ccc(Cl)cc1 | 0.26 µM
CC(CN(C)C)C(=O)Nc1cccc(-c2ccc(-c3nc4ccc(F)cc4[nH]3)cc2)c1 (configuration not stated) | 0.65 µM
CC(=O)Nc1ccc(C(=O)Nc2ccc(-c3cccc(-c4nc5ccc(F)cc5[nH]4)c3)cc2)cn1 | 0.23 µM
CC(CN(C)C)C(=O)Nc1ccc(-c2csc(-c3nc4ccccc4[nH]3)c2)cc1 (configuration not stated) | 1.32 µM
CN1CCN(CCNc2c3ccccc3nc3ccc4ccccc4c23)CC1 | 0.53 µM
O=C(NC1CC1)c1ccc(Cn2c(SCc3cccc(Cl)c3)nc3ccccc3c2=O)cc1 | 0.42 µM

SMILES | IC50
Cc1cccc2[nH]c(-c3ccc(-c4ccc(CN5CCC(CO)CC5)cc4)s3)nc12 | 0.81 µM
CN(C)c1ccc(-c2nc3ccc(N)cc3[nH]2)cc1 | 0.24 µM
O=C(Cc1ccsc1)NCC(c1ccccc1Cl)c1c[nH]c2ccccc12 (configuration not stated) | 0.95 µM
COc1ccc2nccc(NN=Cc3ccc(F)cc3)c2c1 | 0.72 µM
CC(C)(C)NCC(O)COc1ccc(Cl)cc1C1=NNC(=O)CC1 (configuration not stated) | 0.15 µM
CCOc1cc(C(=O)NCCN(CC)c2cccc(C)c2)ccc1-c1nc2ccc(Cl)cc2[nH]1 | 0.81 µM
Cc1cccc2[nH]c(-c3cccc(-c4ccc(NC(=O)Cc5ccccn5)cc4)c3)nc12 | 0.79 µM
CN(C)CC(=O)N(Cc1ccc(Cl)c(Cl)c1)Cc1csc(-c2ccc(CNCc3ccccc3)cc2)n1 | 1.05 µM
CNS(=O)(=O)c1ccc2c(c1)nc(C1CCN(CC3CCC(NC(=O)/C=C/c4ccc(Cl)c(Cl)c4)CC3)CC1)n2C (configuration not stated) | 0.67 µM
COc1cccc(Nc2nc(C)cc(NC3CCN(Cc4ccccc4)CC3)n2)c1 | 0.69 µM
C[C@@H](C(=O)N1CCOCC1)N1CC[C@H](NS(=O)(=O)c2ccc3ccnc(N)c3c2)C1=O | 1.5 µM
CC(=O)Nc1ccc(C(=O)Nc2cccc(-c3ccc(-c4nc5ccccc5[nH]4)s3)c2)cn1 | 0.18 µM
Nc1nc(N)c2c(Cl)c(N(Cc3ccccc3)Cc3ccccc3)ccc2n1 | 0.19 µM
CC(C)CN1CCCN(Cc2cccc(NC(=O)c3cc4ccccc4s3)c2)CC1 | 1.77 µM
COc1ccc(CNC(=O)Nc2cc3cc(-c4ccc(CN5CCCC5)cc4)ccc3n3c(C)nnc23)cc1 | 0.65 µM
CCN(CC)c1ccc(-c2nc3ncc(Cl)cc3[nH]2)cc1 | 1.13 µM
CN(Cc1ccncc1)C(Cc1ccccc1)C1CCN(Cc2ccc(O)c(Cl)c2)CC1 (configuration not stated) | 0.75 µM
CCOC(=O)c1ccc(OCCCCCCOc2ccc(Br)cc2)cc1 | 0.78 µM
COc1ccc(C(=O)[C@H]2C[C@@H]2CN2CC=C(c3c(C)[nH]c4ccccc34)CC2)cc1 | 0.3 µM
Clc1ccc(-c2nc3ccc(-c4ccc5nc(-c6ccc(Cl)cc6)[nH]c5c4)cc3[nH]2)cc1 | 0.24 µM
O=C(/C=C/c1ccc(Cl)c(Cl)c1)NCCCCCN1CCCN(C(=O)Nc2cc(Cl)cc(Cl)c2)CC1 | 0.79 µM
COC(=O)c1ccc(CC(C)NCC(O)c2cccc(I)c2)cc1 (configuration not stated) | 1.32 µM
CN(C)c1ccc(CN2CCC(NC(=O)c3ccc(-c4ccc(N(C)C)cc4)s3)CC2)cc1 | 1.07 µM
CCCCC/C=C/C(=O)NC1CCC(CN2CCC(c3c[nH]c4ccccc34)CC2)CC1 (configuration not stated) | 0.98 µM
Cc1cccc(Nc2nccc(NCC(O)c3cccc(C(F)(F)F)c3)n2)c1 (configuration not stated) | 0.51 µM

SMILES | IC50
COc1ccc2nccc([C@@H](O)CN3CC[C@H](NCc4ccc5c(n4)NC(=O)CS5)[C@H](F)C3)c2c1 | 0.91 µM
CC(C)(Cc1ccc(Cl)cc1)NCCCCCCNCCc1ccc(O)c(O)c1 | 1.2 µM
CCCCCCNC(=O)C1Cc2c([nH]c3cc(Cl)ccc23)C2(CCN(CCC)CC2)N1 (configuration not stated) | 0.88 µM
COc1cc(O)c2c(=O)c(OC)c(-c3cccc(Cl)c3OCC(=O)O)oc2c1OC | 0.59 µM
Cc1cc(N2Cc3ccccc3C2)nc(Nc2ccc(S(=O)(=O)N3CCOCC3)cc2)n1 | 1.11 µM
Fc1ccc2nc(-c3ccc(-c4ccc(CNCCc5cccnc5)cc4)s3)[nH]c2c1 | 0.24 µM
COc1ccc(S(=O)(=O)Nc2ccc(C(=O)NCc3ccccc3C(F)(F)F)cc2)cc1N1CCN(CC2CC2)CC1 | 1.15 µM
CCC1=C[C@@H]2CN(C1)Cc1c([nH]c3ccccc13)[C@@](C(=O)OC)(c1cc3c(cc1OC)N(C)[C@H]1[C@@](O)(C(=O)OC)[C@H](O)[C@]4(CC)C=CCN5CC[C@]31[C@@H]54)C2 | 0.87 µM
CC1CN(c2cc(=O)n(Cc3ccc(NC(=O)Nc4ccc(-c5ccccc5)cc4)cc3)cn2)CC(C)N1 (configuration not stated) | 0.97 µM
COc1ccccc1C(=O)Nc1ccc(Nc2nc(C)cc(N(C)C)n2)cc1 | 0.79 µM
O=C(Cc1ccc(Nc2nccc(Nc3cccc4[nH]ncc34)n2)cc1)Nc1ccc(C(F)(F)F)cc1 | 0.89 µM
CCC(=O)OC(CCN(CC)CC)(c1ccccc1)c1ccccc1 | 0.37 µM
CC(C)c1sc(N2CCCCC2)nc1C(=O)Nc1ccc(F)cc1C(F)(F)F | 0.24 µM
CC(=O)Nc1ncc(C(=O)Nc2cccc(-c3cccc(-c4nc5c(C)cccc5[nH]4)c3)c2)s1 | 0.35 µM
O=C(NCCCCN1CCC(c2ccc3c(c2OCCO)CCCC3)CC1)c1sc(-c2ccc(C(F)(F)F)cc2)nc1CO | 1.05 µM
CC(Oc1c(C2CCN(CCCCNC(=O)c3ccc(-c4ccc(Cl)cc4)cc3)CC2)ccc2c1CCCC2)C(N)=O (configuration not stated) | 0.95 µM
CCCCCCCc1ccc(-c2c(C)[nH]c(C)c(Cl)c2=O)cn1 | 0.36 µM
Cc1ccc(C)c2sc(N(CCCn3ccnc3)C(=O)C=Cc3cccs3)nc12 | 1.06 µM
CC(C)(CNCc1ccc(C(F)(F)F)cc1)c1nc(-c2ccc(Cl)c(O)c2)c(-c2ccnc(N)n2)[nH]1 | 0.15 µM
Cc1ccc(-c2nnc(Nc3ccc(OCC(N)=O)cc3)c3ccccc23)cc1S(=O)(=O)NCC1CCCO1 (configuration not stated) | 0.75 µM
N#CCCN1CCN(Cc2cccc(-c3ccc(-c4nc5ccc(F)cc5[nH]4)cc3)c2)CC1 | 0.6 µM
Cc1cc(N(C)CCCN2CCCCC2)nc(Nc2ccc(Cl)cc2)n1 | 0.19 µM
